Measured values from patent US7557121B2, “Tetrahydronaphthyridine derivatives” (Pfizer Inc, priority 2004, dated 2009).

How the values were obtained:
hERG product = biological target: T1, hERG product (Homo sapiens, UniProt Q12809); experiment: Radioligand binding assay for [3H]-dofetilide binding to the hERG product expressed in HEK-293S cells; settings: displacement of 3H-UK068798 (~5 nM) from membranes of hERG expressing HEK-293S cells; Cheng-Prusoff
T1 construct: host or cells: HEK-293S cells (membranes)
Protocol: (§1) A Radioligand Binding Assay for [^3H]-dofetilide Binding to the hERG Product Expressed in HEK-293S Cells
(§2) hERG expressing HEK-293S cells were obtained from University of Wisconsin and membranes prepared according to standard protocols. Membranes were diluted in assay buffer, consisting of Tris-HCl 50 mM; KCl 10 mM; MgCl2 1 mM pH 7.4 with NaOH, and were pre-coupled with 120 mg/ml YSi polylysine Scintillation Proximity Beads in a ratio of 16 ug protein to 1 mg bead for 2 hours at 4° C. The coupled beads were separated from uncoupled protein by centrifugation and re-suspended in cold assay buffer to give a working solution of 6.25 mgs/ml. 20 μl of test compound was added to a 96-well microtiteplate at a final assay top concentration of 10 μM in serial ½ log dilutions (1 in 3.162) to generate at 10 point IC50 curve. 20 μl of ^3H-UK068798 (Dofetilide, Amersham; specific activity 78-83 Ci/mmole) was placed in each well of a 96 well plate to a final assay concentration of ˜5 nM. To this, 160 μl of bead/membrane mixture was added. The assay plates were shaken for 1 hour at room temperature and incubated for a further 30 minutes at room temperature for beads to settle. The plates were then read on a Packard TopCount NXT. The percentage displacement of ^3H-UK068798 was calculated using 0% as defined by 1% DMSO vehicle in well and 100% as defined by 10 μM UK-068798. Dose response curves were fitted using a four parameter logistical fit and the Ki value was derived using the Cheng-Prusoff equation (Cheng, Y. C. & Prusoff, W. H. (1973). Biochem. Pharmacol., 22, 3099-3108. )

[1] = biological target: T2, human histamine H3 receptor (Homo sapiens, UniProt Q9Y5N1); experiment: H3 cell based functional assay (cAMP through β-lactamase reporter gene activity); settings: functional Ki from antagonist IC50 by Cheng-Prussoff; HEK-293 cells, 10 μM forskolin, 1 nM imetit
T2 construct: expressed in transfected cells; host or cells: HEK-293 cells expressing a CRE β-lactamase reporter gene
Protocol: H3 Cell Based Functional Assay Compounds were evaluated using a cell based functional assay measuring cAMP through β-lactamase reporter gene activity. A stable cell line was generated from HEK-293 cells expressing a CRE β-lactamase reporter gene and transfected with human histamine H3 receptor cDNA. Cells were seeded at a density of 500,000 cells/ml, and grown overnight in MEM (Invitrogen) supplemented with 1% dialysed FBS (Sigma), 2 mM glutamine (Sigma), 1 mM sodium pyruvate (Sigma), 0.1 mM non essential amino acids (Invitrogen) and 25 mM HEPES (Sigma) in poly D lysine coated 384 well plates (BD Biosciences).

hERG = biological target: T3, hERG (Homo sapiens, UniProt Q12809); experiment: Radioligand binding assay for [3H]-dofetilide binding to the hERG product expressed in HEK-293S cells; settings: human, membranes of HEK-293S cells expressing hERG, pH 7.4, probe [3H]-dofetilide (3H-UK068798); displacement of 3H-UK068798 (~5 nM) from membranes of hERG expressing HEK-293S cells; Cheng-Prusoff
T3 construct: host or cells: HEK-293S cells (membranes)
Protocol: as §1, §2

T3 sequence (Q12809 whole entry): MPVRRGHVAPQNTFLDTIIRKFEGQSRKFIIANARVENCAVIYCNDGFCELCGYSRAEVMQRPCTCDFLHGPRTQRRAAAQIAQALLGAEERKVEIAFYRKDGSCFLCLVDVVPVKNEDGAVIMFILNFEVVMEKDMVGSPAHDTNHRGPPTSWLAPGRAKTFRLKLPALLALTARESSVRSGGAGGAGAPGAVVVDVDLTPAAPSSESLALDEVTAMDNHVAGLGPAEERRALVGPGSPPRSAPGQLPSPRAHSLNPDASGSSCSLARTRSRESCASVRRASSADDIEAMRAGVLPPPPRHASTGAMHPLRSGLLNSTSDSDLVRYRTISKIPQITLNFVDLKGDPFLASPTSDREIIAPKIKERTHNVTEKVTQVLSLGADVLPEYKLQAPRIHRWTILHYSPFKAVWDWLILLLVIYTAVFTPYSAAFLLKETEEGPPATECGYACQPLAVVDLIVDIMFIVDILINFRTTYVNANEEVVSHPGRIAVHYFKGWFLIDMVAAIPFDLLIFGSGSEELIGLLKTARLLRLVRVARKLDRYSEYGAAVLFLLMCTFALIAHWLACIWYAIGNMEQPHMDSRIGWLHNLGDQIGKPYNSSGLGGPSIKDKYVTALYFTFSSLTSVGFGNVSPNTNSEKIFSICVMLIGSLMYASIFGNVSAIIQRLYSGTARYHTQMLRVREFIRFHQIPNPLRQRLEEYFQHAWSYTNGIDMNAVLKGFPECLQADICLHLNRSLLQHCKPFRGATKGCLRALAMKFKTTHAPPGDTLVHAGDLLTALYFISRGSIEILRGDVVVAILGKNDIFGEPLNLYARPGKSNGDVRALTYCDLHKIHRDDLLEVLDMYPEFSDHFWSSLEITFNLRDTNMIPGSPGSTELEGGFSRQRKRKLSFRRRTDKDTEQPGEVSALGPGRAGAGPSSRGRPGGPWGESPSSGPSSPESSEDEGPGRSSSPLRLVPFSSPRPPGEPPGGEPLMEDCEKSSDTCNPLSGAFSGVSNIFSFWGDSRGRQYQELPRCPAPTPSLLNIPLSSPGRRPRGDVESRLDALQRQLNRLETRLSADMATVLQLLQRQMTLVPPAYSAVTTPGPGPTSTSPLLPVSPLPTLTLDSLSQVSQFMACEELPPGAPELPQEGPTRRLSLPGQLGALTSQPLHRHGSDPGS
T1 sequence (Q12809 whole entry): as above
T2 sequence (Q9Y5N1 whole entry): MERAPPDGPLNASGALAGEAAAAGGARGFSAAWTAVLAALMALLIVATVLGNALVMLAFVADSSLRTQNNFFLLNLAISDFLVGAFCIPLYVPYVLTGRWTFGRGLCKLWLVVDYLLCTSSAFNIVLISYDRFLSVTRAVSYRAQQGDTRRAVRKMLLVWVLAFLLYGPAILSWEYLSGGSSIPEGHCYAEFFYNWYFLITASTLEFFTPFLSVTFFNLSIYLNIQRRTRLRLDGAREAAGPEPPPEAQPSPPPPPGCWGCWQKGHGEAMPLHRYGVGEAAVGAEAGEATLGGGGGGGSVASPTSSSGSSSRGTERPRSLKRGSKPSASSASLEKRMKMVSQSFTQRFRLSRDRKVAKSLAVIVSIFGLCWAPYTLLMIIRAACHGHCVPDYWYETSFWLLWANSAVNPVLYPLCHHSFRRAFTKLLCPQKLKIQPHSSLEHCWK

SMILES: c1cnnc(N2CCc3nc(OCCCN4CCCCC4)ccc3C2)c1 [Example 29, 2-(3-piperidin-1-ylpropoxy)-6-pyridazin-3-yl-5,6,7,8-tetrahydro-1,6-naphthyridine]
- Ki (hERG product): 64.4 µM
- Ki [1]: 0.0198 µM

SMILES: CNC(=O)c1ccc(N2CCc3nc(OCCCN4CCCC4)ccc3C2)nc1 [Example 44, N-methyl-6-[2-(3-pyrrolidin-1-ylpropoxy)-7,8-dihydro-1,6-naphthyridin-6(5H)-yl]nicotinamide]
- Ki (hERG product): 85.8 µM
- Ki [1]: 0.0181 µM

SMILES: C[C@@H]1CCCN1CCCOc1ccc2c(n1)CCN(c1cnccn1)C2 [Example 23, 2-{3-[(2R)-2-methylpyrrolidin-1-yl]propoxy}-6-pyrazin-2-yl-5,6,7,8-tetrahydro-1,6-naphthyridine]
- Ki (hERG product): 11.5 µM
- Ki [1]: 0.0103 µM

SMILES: CN(C)C(=O)c1ccc(N2CCc3nc(OCCCN4CCCC4)ccc3C2)cn1 [Example 67, N,N-Dimethyl-5-[2-(3-pyrrolidin-1-ylpropoxy)-7,8-dihydro-1,6-naphthyridin-6(5H)-yl]pyridine-2-carboxamide]
- Ki at 1.5 h (hERG): 100 µM
- Ki [1]: 0.0197 µM

SMILES: CNC(=O)c1ccc(N2CCc3nc(OCCCN4CCCC4)ccc3C2)cn1 [Example 65, N-Methyl-5-[2-(3-pyrrolidin-1-ylpropoxy)-7,8-dihydro-1,6-naphthyridin-6(5H)-yl]pyridine-2-carboxamide]
- Ki (hERG product): 46.1 µM
- Ki [1]: 0.0163 µM

SMILES: CNC(=O)c1ccc(N2CCc3nc(OCCCN4CCC[C@H]4C)ccc3C2)cn1 [Example 64, N-Methyl-5-[2-{3-[(2R)-2-methylpyrrolidin-1-yl]propoxy}-7,8-dihydro-1,6-naphthyridin-6(5H)-yl]pyridine-2-carboxamide]
- Ki (hERG product): 55.5 µM
- Ki [1]: 0.00467 µM

SMILES: CNC(=O)c1ccc(N2CCc3nc(OC4CCN(C(C)C)CC4)ccc3C2)nc1 [Example 70, 6-[2-[(1-Isopropylpiperidin4-yl)oxy]-7,8-dihydro-1,6-naphthyridin-6(5H)-yl]-N-methylnicotinamide]
- Ki (hERG product): 94.4 µM
- Ki [1]: 0.00632 µM

SMILES: NC(=O)c1ccc(N2CCc3nc(OCCCN4CCCCC4)ccc3C2)nc1 [Example 48, 6-[2-(3-piperidin-1-ylpropoxy)-7,8-dihydro-1,6-naphthyridin-6(5H)-yl]nicotinamide]
- Ki at 1.5 h (hERG): 100 µM
- Ki [1]: 0.0145 µM

SMILES: Cc1ccc(N2CCc3nc(OCCCN4CCC[C@H]4C)ccc3C2)cn1 [Example 24, 6-(6-methylpyridin-3-yl)-2-{3-[(2R)-2-methylpyrrolidin-1-yl]propoxy}-5,6,7,8-tetrahydro-1,6-naphthyridine]
- Ki (hERG product): 35.6 µM
- Ki [1]: 0.00821 µM

SMILES: CNC(=O)c1ccc(N2CCc3nc(OCCCN4CCC[C@H]4C)ccc3C2)nc1 [Example 68, N-Methyl-6-[2-{3-[(2R)-2-methylpyrrolidin-1-yl]propoxy}-7,8-dihydro-1,6-naphthyridin-6(5H)-yl]nicotinamide]
- Ki at 1.5 h (hERG): 100 µM
- Ki [1]: 0.00828 µM

SMILES: CC(C)N1CCC(Oc2ccc3c(n2)CCN(c2cnccn2)C3)CC1 [Example 71, 2-[(1-Isopropylpiperidin-4-yl)oxy]-6-pyrazin-2-yl-5,6,7,8-tetrahydro-1,6-naphthyridine]
- Ki (hERG product): 22.9 µM
- Ki [1]: 0.0137 µM

SMILES: C[C@H]1CCCN1CCCOc1ccc2c(n1)CCN(c1cnccn1)C2 [Example 26, 2-{3-[(2S)-2-methylpyrrolidin-1-yl]propoxy}-6-pyrazin-2-yl-5,6,7,8-tetrahydro-1,6-naphthyridine]
- Ki (hERG product): 9.88 µM
- Ki [1]: 0.00524 µM

SMILES: C[C@@H]1CCCN1CCCOc1ccc2c(n1)CCN(c1cccnn1)C2 [Example 22, 2-{3-[(2R)-2-methylpyrrolidin-1-yl]propoxy}-6-pyridazin-3-yl-5,6,7,8-tetrahydro-1,6-naphthyridine]
- Ki (hERG product): 51.8 µM
- Ki [1]: 0.00916 µM

SMILES: C[C@H]1CCCN1CCCOc1ccc2c(n1)CCN(c1cccnn1)C2 [Example 25, 2-{3-[(2S)-2-methylpyrrolidin-1-yl]propoxy}-6-pyridazin-3-yl-5,6,7,8-tetrahydro-1,6-naphthyridine]
- Ki (hERG product): 55.9 µM
- Ki [1]: 0.00556 µM

SMILES: Cc1ccc(N2CCc3nc(OC4CCN(C(C)C)CC4)ccc3C2)cn1 [Example 72, 2-[(1-isoproplpiperidin-4-yl)oxy]-6-(6-methylpyridin-3-yl)-5,6,7,8-tetrahydro-1,6-naphthyridine]
- Ki (hERG product): 13.7 µM
- Ki [1]: 0.00486 µM
